The values that follow come from publication PMC9306553 (Angewandte Chemie (International Ed. in English), 2022).

As a reminder, the IC50 is the point on the concentration scale where inhibition reaches its midpoint. As usually defined, the Ki is the dissociation constant of the complex between target and ligand, obtained from inhibition or displacement. Read a low Ki as higher affinity.

Assay [1] concerns the target T1, CCR9 (Homo sapiens, UniProt P51686).
T1 sequence (P51686 1-357 isoform P51686-2): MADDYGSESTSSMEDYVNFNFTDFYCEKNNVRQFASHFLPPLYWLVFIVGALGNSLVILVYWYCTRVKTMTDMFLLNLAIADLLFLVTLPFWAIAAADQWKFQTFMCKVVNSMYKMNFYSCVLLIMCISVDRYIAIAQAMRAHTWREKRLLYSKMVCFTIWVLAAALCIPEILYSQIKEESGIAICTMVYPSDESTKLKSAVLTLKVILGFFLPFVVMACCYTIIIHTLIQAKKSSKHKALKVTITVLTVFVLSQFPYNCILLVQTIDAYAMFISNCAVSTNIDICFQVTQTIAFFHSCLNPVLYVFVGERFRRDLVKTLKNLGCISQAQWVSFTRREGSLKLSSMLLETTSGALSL
Format: cell-based. The settings on record: for effect on the CCR9 degradation by 13 (ELISA): co-treatment with 13, HEK293T cells transiently expressing CCR9. (ELISA stands for enzyme-linked immunosorbent assay.)

In assay [2] the target is T1, CCR9. Kind of assay: cell-based. The settings on record: HEK293T cells, stimulated with CCL25 31.6 nM.
In assay [3] the target is T1, CCR9. The assay is described as follows: biochemical. The format is binding. The conditions noted are these: CCR9_Nluc membranes; for Ki: tracer 3a 100 nM.
Assay [4] addresses T1, CCR9. The assay is described as follows: cell-based. The conditions noted are these: tracer 3a 120 nM, live HEK293T cells expressing CCR9_Nluc.
For assay [5], the target named is T2, CCR9 (Homo sapiens, UniProt P51686).
T2 sequence (P51686 1-369): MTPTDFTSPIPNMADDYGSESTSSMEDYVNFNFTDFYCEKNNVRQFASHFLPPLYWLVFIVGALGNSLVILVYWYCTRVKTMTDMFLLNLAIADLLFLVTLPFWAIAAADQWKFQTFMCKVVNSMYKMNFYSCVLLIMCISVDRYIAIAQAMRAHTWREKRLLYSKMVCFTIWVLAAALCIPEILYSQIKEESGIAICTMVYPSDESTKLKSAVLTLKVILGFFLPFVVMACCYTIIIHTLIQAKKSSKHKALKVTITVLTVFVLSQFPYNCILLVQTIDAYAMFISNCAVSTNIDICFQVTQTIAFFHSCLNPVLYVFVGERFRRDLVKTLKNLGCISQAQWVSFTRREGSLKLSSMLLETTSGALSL
The assay is described as follows: cell-based. The settings on record: for IC50: IC50 β-arrestin2 recruitment, HEK293T cells, stimulated with CCL25 31.6 nM. Format: cell-based.

Another assay has as its target T3, CCR2 (Homo sapiens, UniProt P41597).
T3 sequence (P41597 1-360 isoform P41597-2): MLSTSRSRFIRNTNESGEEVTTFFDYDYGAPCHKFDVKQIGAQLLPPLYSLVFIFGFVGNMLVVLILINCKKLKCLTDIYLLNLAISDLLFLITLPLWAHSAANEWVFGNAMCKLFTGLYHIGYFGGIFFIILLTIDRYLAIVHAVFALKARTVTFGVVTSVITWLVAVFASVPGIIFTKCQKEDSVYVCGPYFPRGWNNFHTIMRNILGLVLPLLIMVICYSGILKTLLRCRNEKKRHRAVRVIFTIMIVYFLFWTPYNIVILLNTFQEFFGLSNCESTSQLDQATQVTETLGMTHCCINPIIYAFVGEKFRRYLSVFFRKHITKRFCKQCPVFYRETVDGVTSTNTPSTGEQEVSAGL
The assay is described as follows: BRET-based G protein activation assay, CCR2. Format: cell-based. The settings on record: stimulated with CCL2 10 nM. (BRET reads energy transfer from a luciferase to a nearby fluorophore.)

Setting [6] is: pKi NanoBRET (membranes), mean±SEM.
The mark [7] stands for this setting: pKi NanoBRET (in cells), mean±SEM.

For the molecule `Cc1ncsc1-c1ccc(CNC(=O)[C@@H]2C[C@@H](O)CN2C(=O)[C@@H](N)C(C)(C)C)cc1` [(S,R,S)‐AHPC], on CCR9 [1] (HEK293T cells transiently expressing CCR9, 14 h treatment), the “effect on CCR9 levels (ELISA)” value is “did not result in reduction of CCR9 levels”. Further, the “effect on the CCR9 degradation by 13 (ELISA)” value at CCR9 [1] is recorded as “can be counteracted”.
For the molecule `NS(=O)(=O)OC[C@@H]1C[C@@H](n2ccc3c(N[C@H]4CCc5ccccc54)ncnc32)C[C@@H]1O` [MLN4924], the “effect on the CCR9 degradation by 13 (ELISA)” value at CCR9 [1] is listed as “can be reduced”.
Take `CC(C)(C)c1ccc(S(=O)(=O)Nc2ccc(Cl)cc2-c2nccnc2N)cc1` [compound 10]: the IC50 against CCR9 [2] (IC50 Gαo activation) was 14.9 nM; against CCR9 [2] (pIC50 Gαo activation, mean±SEM) it was 14.8 nM; against CCR9 [5] it was 17.4 nM. The Ki is 3.51 nM on CCR9 [3] (Ki NanoBRET (membranes)), 3.24 nM on CCR9 [3] (setting [6]), 11.5 nM at CCR9 [4] (Ki NanoBRET (in cells)) and 10.5 nM at CCR9 [4] (setting [7]).
With `CC(C)(C)c1ccc(S(=O)(=O)Nc2ccc(Cl)cc2-c2cccnc2N)cc1` [compound 11], the IC50 against CCR9 [2] (IC50 Gαo activation) was 256 nM; on CCR9 [2] (pIC50 Gαo activation, mean±SEM) it was 257 nM; on CCR9 [5], 166 nM. Further, the Ki is 13 nM at CCR9 [3] (Ki NanoBRET (membranes)), 12.3 nM on CCR9 [3] (setting [6]), 20.5 nM on CCR9 [4] (Ki NanoBRET (in cells)) and 19.1 nM on CCR9 [4] (setting [7]).
For `CC(C)(C)c1ccc(S(=O)(=O)Nc2ccc(Cl)cc2-c2cncnc2N)cc1` [compound 12], the “inhibition of CCR2 (G protein activation)” value against CCR2 is “no inhibition”. Moreover, the “increase in potency compared to 1, β-arrestin recruitment” value at CCR9 [5] (12 versus 1) was “≈ 10 fold”.

B1: CCL25: orthosteric CCR9 agonist (protein, UniProt O15444 24-150, looked up)
C-C motif chemokine 25: QGVFEDCCLAYHYPIGWAVLRRAWTYRIQEVSGSCNLPAAIFYLPKRHRKVCGNPKSREVQRAMKLLDARNKVFAKLHHNTQTFQAGPHAVKKLSSGNSKLSSSKFSNPISSSKRNVSLLISANSGL
As for B1, in the assay with CCR9 [3] (3a 100 nM, prevented binding and displacement setup), the “effect on the binding of 3a to the IABS” value is given as “did not affect the binding”.
